Experimental data: US20240424113A1, “CONJUGATES COMPRISING ANTIFUNGALS AND HEAT SHOCK PROTEIN 90 (HSP90) INHIBITORS AND METHODS OF USE THEREOF” (Bright Angel Therapeutics Inc., priority 2021, published 2024)
In brackets after ≈: the same amount, converted by molar mass.

Columns and labels:
[1] = target: Hsp90 Nuclear Binding Domain (NBD) (Candida albicans (strain SC5314 / ATCC MYA-2876) (Yeast), UniProt P46598); assay: Surface Plasmon Resonance (SPR) binding, C. albicans Hsp90 NBD; details: biotinylated Hsp90 NBD on streptavidin chip, 25° C., 1:1 binding model
Hsp90 Nuclear Binding Domain (NBD) (Candida albicans (strain SC5314 / ATCC MYA-2876) (Yeast), UniProt P46598), sequence (P46598 1-218 limits assumed): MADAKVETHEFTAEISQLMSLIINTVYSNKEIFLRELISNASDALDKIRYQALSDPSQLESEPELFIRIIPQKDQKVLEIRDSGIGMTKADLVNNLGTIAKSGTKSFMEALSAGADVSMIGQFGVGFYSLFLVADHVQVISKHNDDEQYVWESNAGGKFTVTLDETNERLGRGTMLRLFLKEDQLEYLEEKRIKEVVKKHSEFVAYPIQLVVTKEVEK
Description: (§1) Surface Plasmon Resonance (SPR) Experiments. SPR experiments were performed on a Biacore S200 instrument at 25° C. Biotinylated Hsp90 Nuclear Binding Domain (NBD) was diluted to 40 μg/mL and immobilized on a streptavidin chip (Sensor Chip SA, GE Healthcare) at a density of 2000-2500 response units (RU) on the biosensor surface.
(§2) Recombinant Hsp90 NBDs were expressed and purified as previously described (Whitesell et al., Nat Commun 10, 402 (2019)) with the following modification; Hsp90 NBD expression constructs were modified to encode a C-terminal AviTag for site-specific on-column biotinylation with a BirA biotin-ligase kit (Avidity LLC; BirA-500). Stock protein solutions in 50% glycerol were stored at −20° C. until dilution into relevant buffers. Binding experiments were done in HBS-P (0.01 M HEPES, pH 7.4, 0.15 M NaCl, 0.005% v/v surfactant P20, GE Healthcare) with 2% DMSO at flow rate of 40 μL/min. Test compounds (dilution series) were injected with a 60 s association time and 600 s dissociation time. Resulting sensorgrams were analyzed with a fit to a 1:1 binding model, using BIA evaluation software.

[2] = target: Hsp90 Nuclear Binding Domain (NBD) (Aspergillus fumigatus, UniProt P40292); assay: Surface Plasmon Resonance (SPR) binding, A. fumigatus Hsp90 NBD; details: biotinylated Hsp90 NBD on streptavidin chip, 25° C., 1:1 binding model; NB undefined
Hsp90 Nuclear Binding Domain (NBD) (Aspergillus fumigatus, UniProt P40292), sequence (P40292 whole entry, looked up, the tested form may be a part): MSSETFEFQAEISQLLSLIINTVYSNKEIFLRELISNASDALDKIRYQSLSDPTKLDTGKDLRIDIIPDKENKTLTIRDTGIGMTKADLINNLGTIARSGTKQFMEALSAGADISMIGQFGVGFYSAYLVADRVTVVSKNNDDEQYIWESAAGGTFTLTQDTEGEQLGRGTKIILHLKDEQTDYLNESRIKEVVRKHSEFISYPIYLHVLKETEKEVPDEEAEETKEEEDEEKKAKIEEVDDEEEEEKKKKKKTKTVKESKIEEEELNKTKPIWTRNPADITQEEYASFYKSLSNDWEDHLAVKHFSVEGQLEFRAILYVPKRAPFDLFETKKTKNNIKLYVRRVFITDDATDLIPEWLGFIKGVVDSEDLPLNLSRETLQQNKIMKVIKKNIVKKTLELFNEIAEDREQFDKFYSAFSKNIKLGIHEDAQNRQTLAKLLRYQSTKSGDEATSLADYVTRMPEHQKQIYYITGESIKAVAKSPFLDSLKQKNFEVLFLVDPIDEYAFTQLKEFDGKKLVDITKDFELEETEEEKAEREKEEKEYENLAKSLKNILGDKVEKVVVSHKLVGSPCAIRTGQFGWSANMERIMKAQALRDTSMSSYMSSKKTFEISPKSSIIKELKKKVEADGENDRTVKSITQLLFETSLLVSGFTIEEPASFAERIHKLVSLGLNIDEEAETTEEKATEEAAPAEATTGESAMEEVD
Description: as §1, §2

[3] = tested on: CaCl2; assay: Antifungal sensitivity testing (broth microdilution MIC); type: cell-based; details: Table 4; 96-well broth microdilution
Description: Antifungal Sensitivity Testing. Minimum inhibitory concentrations (MICs) were determined in flat bottom, 96-well plate format using a modified broth microdilution protocol as previously described (Singh et al., PLoS Pathog. 5, e1000532 (2009); LaFayette et al., PLoS Pathog. 6, 79-80 (2010)). Compounds were formulated in dimethyl sulfoxide (DMSO, Sigma-Aldrich Co.); fluconazole was dissolved in sterile ddH2O. Each compound was tested in duplicate in at least two independent experiments. To test for fungicidal activity, cultures from MIC plates were spotted on YPD agar plates using a spotter (Frogger, V&P Scientific, Inc.). Plates were photographed after 24 h of incubation at 30° C.

SMILES | Kd [1] [nM] | Kd [2] [nM] | MIC50 [3] [µM]
Nc1nc2sc(CNC3CCN(CC(O)(Cn4cncn4)c4ccc(F)cc4F)C(=O)C3)cc2n(-c2ccc3c(c2)N(c2ccccc2)CCO3)c1=O (stereo not drawn) [Compound I-141, 3-amino-6-(((1-(2-(2,4-difluorophenyl)-2-hydroxy-3-(1H-1,2,4-triazol-1-yl)propyl)-2-oxopiperidin-4-yl)amino)methyl)-1-(4-phenyl-3,4-dihydro-2H-benzo[b][1,4]oxazin-6-yl)thieno[2,3-b]pyrazin-2(1H)-one] | 342 | 620 | 6.3 (≈ 4.66 µg/mL)
Nc1nc2sc(C(=O)NC3CCN(CC(O)(Cn4cncn4)c4ccccn4)CC3)cc2n(-c2ccc3c(c2)N(c2ccccc2)CCO3)c1=O (stereo not drawn) [Compound I-142, 3-amino-N-(1-(2-hydroxy-2-(pyridin-2-yl)-3-(1H-1,2,4-triazol-1-yl)propyl)piperidin-4-yl)-2-oxo-1-(4-phenyl-3,4-dihydro-2H-benzo[b][1,4]oxazin-6-yl)-1,2-dihydrothieno[2,3-b]pyrazine-6-carboxamide] | 2.4 | 34.1 | 25 (≈ 17.6 µg/mL)
Nc1nc2sc(-c3nc(C(=O)NCC(O)(Cn4cncn4)c4ccc(F)cc4F)no3)cc2n(-c2ccc3c(c2)N(c2ccccc2)CCO3)c1=O (stereo not drawn) [Compound I-57, 5-(3-amino-2-oxo-1-(4-phenyl-3,4-dihydro-2H-benzo[b][1,4]oxazin-6-yl)-1,2-dihydrothieno[2,3-b]pyrazin-6-yl)-N-(2-(2,4-difluorophenyl)-2-hydroxy-3-(1H-1,2,4-triazol-1-yl)propyl)-1,2,4-oxadiazole-3-carboxamide] | 32.1 | 46.9 | 20 (≈ 14.5 µg/mL)
Nc1nc2sc(CN[C@H]3CCN(CC(O)(Cn4cncn4)c4ccc(F)cc4F)C3)cc2n(-c2ccc3c(c2)N(c2ccccc2)CCO3)c1=O (stereo partly drawn) [Compound I-71, 3-amino-6-((((3S)-1-(2-(2,4-difluorophenyl)-2-hydroxy-3-(1H-1,2,4-triazol-1-yl)propyl)pyrrolidin-3-yl)amino)methyl)-1-(4-phenyl-3,4-dihydro-2H-benzo[b][1,4]oxazin-6-yl)thieno[2,3-b]pyrazin-2(1H)-one] | 865 | 1260 | 6.25 (≈ 4.45 µg/mL)
Nc1nc2sc(CN[C@H]3CCCN(CC(O)(Cn4cncn4)c4ccc(F)cc4F)C3)cc2n(-c2ccc3c(c2)N(c2ccccc2)CCO3)c1=O (stereo partly drawn) [Compound I-79, 3-amino-6-((((3S)-1-(2-(2,4-difluorophenyl)-2-hydroxy-3-(1H-1,2,4-triazol-1-yl)propyl)piperidin-3-yl)amino)methyl)-1-(4-phenyl-3,4-dihydro-2H-benzo[b][1,4]oxazin-6-yl)thieno[2,3-b]pyrazin-2(1H)-one] | 877 | 1020 | 3 (≈ 2.18 µg/mL)
Nc1nc2scc(C(=O)N[C@H]3CCN(CC(O)(Cn4cncn4)c4ccc(F)cc4F)C3)c2n(-c2ccc3c(c2)N(c2ccccc2)CCO3)c1=O (stereo partly drawn) [Compound I-17, 3-amino-N-((3S)-1-(2-(2,4-difluorophenyl)-2-hydroxy-3-(1H-1,2,4-triazol-1-yl)propyl)pyrrolidin-3-yl)-2-oxo-1-(4-phenyl-3,4-dihydro-2H-benzo[b][1,4]oxazin-6-yl)-1,2-dihydrothieno[2,3-b]pyrazine-7-carboxamide] | 2670 | 2700 | 45 (≈ 32.7 µg/mL)
Nc1nc2sc(CNC3CN(CC(O)(Cn4cncn4)c4ccc(F)cc4F)C3)cc2n(-c2ccc3c(c2)N(c2ccccc2)CCO3)c1=O (stereo not drawn) [Compound I-66, 3-amino-6-(((1-(2-(2,4-difluorophenyl)-2-hydroxy-3-(1H-1,2,4-triazol-1-yl)propyl)azetidin-3-yl)amino)methyl)-1-(4-phenyl-3,4-dihydro-2H-benzo[b][1,4]oxazin-6-yl)thieno[2,3-b]pyrazin-2(1H)-one] | 1060 | 1380 | 22.5 (≈ 15.7 µg/mL)
Nc1nc2sc(CN[C@@H]3CCCN(CC(O)(Cn4cncn4)c4ccc(F)cc4F)C3)cc2n(-c2ccc3c(c2)N(c2ccccc2)CCO3)c1=O (stereo partly drawn) [Compound I-75, 3-amino-6-((((3R)-1-(2-(2,4-difluorophenyl)-2-hydroxy-3-(1H-1,2,4-triazol-1-yl)propyl)piperidin-3-yl)amino)methyl)-1-(4-phenyl-3,4-dihydro-2H-benzo[b][1,4]oxazin-6-yl)thieno[2,3-b]pyrazin-2(1H)-one] | 233 | 340 | 4 (≈ 2.9 µg/mL)
Nc1nc2sc(CNC3CCN(C[C@](O)(Cn4cncn4)c4ccc(F)cc4F)CC3)cc2n(-c2ccc3c(c2)N(c2ccccc2)CCO3)c1=O [Compound I-63, (S)-3-amino-6-(((1-(2-(2,4-difluorophenyl)-2-hydroxy-3-(1H-1,2,4-triazol-1-yl)propyl)piperidin-4-yl)amino)methyl)-1-(4-phenyl-3,4-dihydro-2H-benzo[b][1,4]oxazin-6-yl)thieno[2,3-b]pyrazin-2(1H)-one] | 377 | 591 | 9 (≈ 6.53 µg/mL)
Nc1nc2sc(CN[C@@H]3CCN(CCC(O)(Cn4cncn4)c4ccc(F)cc4F)C3)cc2n(-c2ccc3c(c2)N(c2ccccc2)CCO3)c1=O (stereo partly drawn) [Compound I-120, 3-amino-6-((((3R)-1-(3-(2,4-difluorophenyl)-3-hydroxy-4-(1H-1,2,4-triazol-1-yl)butyl)pyrrolidin-3-yl)amino)methyl)-1-(4-phenyl-3,4-dihydro-2H-benzo[b][1,4]oxazin-6-yl)thieno[2,3-b]pyrazin-2(1H)-one] | 179 | 265 | 17.5 (≈ 12.7 µg/mL)
Nc1nc2sc(C(=O)NCCN3CCN(CC(O)(Cn4cncn4)c4ccc(F)cc4F)CC3)cc2n(-c2ccc3c(c2)N(c2ccccc2)CCO3)c1=O (stereo not drawn) [Compound I-15, 3-amino-N-(2-(4-(2-(2,4-difluorophenyl)-2-hydroxy-3-(1H-1,2,4-triazol-1-yl)propyl)piperazin-1-yl)ethyl)-2-oxo-1-(4-phenyl-3,4-dihydro-2H-benzo[b][1,4]oxazin-6-yl)-1,2-dihydrothieno[2,3-b]pyrazine-6-carboxamide] | 30.4 | 188 | 2.75 (≈ 2.11 µg/mL)
Nc1nc2sc(C(=O)N[C@H]3CCN(CC(O)(Cn4cncn4)c4ccc(F)cc4F)C3)cc2n(-c2ccc3c(c2)N(c2ccccc2)CCO3)c1=O (stereo partly drawn) [Compound I-14, 3-amino-N-((3S)-1-(2-(2,4-difluorophenyl)-2-hydroxy-3-(1H-1,2,4-triazol-1-yl)propyl)pyrrolidin-3-yl)-2-oxo-1-(4-phenyl-3,4-dihydro-2H-benzo[b][1,4]oxazin-6-yl)-1,2-dihydrothieno[2,3-b]pyrazine-6-carboxamide] | 23.4 | 146 | 25 (≈ 18.1 µg/mL)
Nc1nc2sc(CN[C@H]3[C@@H]4CN(C[C@@](O)(Cn5cncn5)c5ccc(F)cc5F)C[C@@H]43)cc2n(-c2ccc3c(c2)N(c2ccccc2)CCO3)c1=O [Compound I-127, 3-amino-6-((((1R,5S,6S)-3-((R)-2-(2,4-difluorophenyl)-2-hydroxy-3-(1H-1,2,4-triazol-1-yl)propyl)-3-azabicyclo[3.1.0]hexan-6-yl)amino)methyl)-1-(4-phenyl-3,4-dihydro-2H-benzo[b][1,4]oxazin-6-yl)thieno[2,3-b]pyrazin-2(1H)-one] | 699 | 1190 | 6.25 (≈ 4.52 µg/mL)
Nc1nc2sc(C(=O)NC3CCN(CCC(O)(Cn4cncn4)c4ccc(F)cc4F)CC3)cc2n(-c2ccc3c(c2)N(c2ccccc2)CCO3)c1=O (stereo not drawn) [Compound I-28, 3-amino-N-(1-(3-(2,4-difluorophenyl)-3-hydroxy-4-(1H-1,2,4-triazol-1-yl)butyl)piperidin-4-yl)-2-oxo-1-(4-phenyl-3,4-dihydro-2H-benzo[b][1,4]oxazin-6-yl)-1,2-dihydrothieno[2,3-b]pyrazine-6-carboxamide] | 13.3 | 159 | 6 (≈ 4.52 µg/mL)
Nc1nc2sc(CNC3CCN(CC(O)(Cn4cncn4)c4ccc(F)cc4F)CC3(F)F)cc2n(-c2ccc3c(c2)N(c2ccccc2)CCO3)c1=O (stereo not drawn) [Compound I-137, 3-amino-6-(((1-(2-(2,4-difluorophenyl)-2-hydroxy-3-(1H-1,2,4-triazol-1-yl)propyl)-3,3-difluoropiperidin-4-yl)amino)methyl)-1-(4-phenyl-3,4-dihydro-2H-benzo[b][1,4]oxazin-6-yl)thieno[2,3-b]pyrazin-2(1H)-one] | 54.1 | 127 | 0.78 (≈ 0.594 µg/mL)
Nc1nc2sc(CN[C@@H]3CCN(CC(O)(Cn4cncn4)c4ccc(F)cc4F)C3)cc2n(-c2ccc3c(c2)N(c2ccccc2)CCO3)c1=O (stereo partly drawn) [Compound I-77, 3-amino-6-((((3R)-1-(2-(2,4-difluorophenyl)-2-hydroxy-3-(1H-1,2,4-triazol-1-yl)propyl)pyrrolidin-3-yl)amino)methyl)-1-(4-phenyl-3,4-dihydro-2H-benzo[b][1,4]oxazin-6-yl)thieno[2,3-b]pyrazin-2(1H)-one] | 187 | 373 | 12.5 (≈ 8.9 µg/mL)
